Here are results for 1 compound from ChEMBL document CHEMBL5055665, “Discovery of the Triazolo[1,5-a]Pyrimidine-Based Derivative WS-898 as a Highly Efficacious and Orally Bioavailable ABCB1 Inhibitor Capable of Overcoming Multidrug Resistance” (J Med Chem, 2021).

Data set [1] relates to SW-620. Description: Reversal of resistance to paclitaxel-induced cytotoxicity in human SW-620 cells assessed as reduction in paclitaxel IC50 at 2 uM preincubated for 4 hrs followed by paclitaxel addition and measured after 72 hrs by MTT assay (reference value: 7.69 +/- 2.78 nM). In kind it is functional, cell-based.
Data set [2] concerns KB-C2. Description: Reversal of resistance to paclitaxel-induced cytotoxicity in human KB-C2 cells assessed as reduction in paclitaxel IC50 at 1 uM preincubated for 4 hrs followed by paclitaxel addition and measured after 72 hrs by MTT assay (reference value: 1886.37 +/- 243.05 nM). The format is functional, cell-based.
For data set [3], the system named is KB-C2. The experiment in a line: Reversal of resistance to paclitaxel-induced cytotoxicity in human KB-C2 cells assessed as reversal fold at 1 uM preincubated for 4 hrs followed by paclitaxel addition and measured after 72 hrs by MTT assay relative to paclitaxel. In kind it is functional. The note with it: time 76 hrs.
Data set [4] concerns HEK293. The experiment in a line: Reversal of resistance to paclitaxel-induced cytotoxicity in human HEK293/pcDNA3.1 cells assessed as reversal fold at 2 uM preincubated for 4 hrs followed by paclitaxel addition and measured after 72 hrs by MTT assay. The note with it: time 76 hrs. In kind it is functional.
The subject of data set [5] is HEK293. Description: Reversal of resistance to paclitaxel-induced cytotoxicity in human HEK293/ABCB1 cells assessed as reduction in paclitaxel IC50 at 2 uM preincubated for 4 hrs followed by paclitaxel addition and measured after 72 hrs by MTT assay (reference value: 91.40 +/- 23.32 nM). In kind it is functional, cell-based.
The test system of data set [6] is HEK293. Description: Reversal of resistance to paclitaxel-induced cytotoxicity in human HEK293/ABCB1 cells assessed as reversal fold at 1 uM preincubated for 4 hrs followed by paclitaxel addition and measured after 72 hrs by MTT assay relative to paclitaxel. The note with it: time 76 hrs. In kind it is functional.
For data set [7], the system named is HEK293. The experiment in a line: Reversal of resistance to paclitaxel-induced cytotoxicity in human HEK293/ABCB1 cells assessed as reversal fold at 2 uM preincubated for 4 hrs followed by paclitaxel addition and measured after 72 hrs by MTT assay relative to paclitaxel. In kind it is functional. Particulars: time 76 hrs.
Data set [8] concerns the target ATP-dependent translocase ABCB1 (Homo sapiens, UniProt P08183). The experiment in a line: Activation of ABCB1 ATPase activity (unknown origin) assessed as fold stimulation of ATP hydrolysis at 0 to 20 uM using Mg-ATP as substrate incubated for 20 mins by spectrophotometric method. The note with it: dose 0-20 µM.
For data set [9], the system named is SW-620. Description: Antitumor activity against human SW-620/AD300 cells xenografted in BALB/c nude mouse assessed as reduction in tumor weight at 30 mg/kg/day, ig administered for 21 days in presence of paclitaxel. In kind it is functional, organism-based. The note with it: time 21.0 day.
Data set [10] concerns Mus musculus. Description: Toxicity in BALB/c mouse xenografted with human SW-620/AD300 cells assessed as change in body weight at 30 mg/kg/day, ig administered 21 days. The format is organism-based. Particulars: in vivo, po, 504 h, time 21 day.
Data set [11] concerns Mus musculus. Description: Toxicity in BALB/c mouse xenografted with human SW-620/AD300 cells assessed as mortality at 30 mg/kg/day, ig administered 21 days. In kind it is organism-based. Particulars: in vivo, po, 504 h, time 21 day.
In data set [12] the test system is Mus musculus. Description: Toxicity in BALB/c mouse xenografted with human SW-620/AD300 cells assessed as mortality at 30 mg/kg/day, ig administered 21 days in presence of paclitaxel. Particulars: in vivo, po, 504 h, time 21 day. In kind it is organism-based.
The subject of data set [13] is SW-620. Description: Antitumor activity against human SW-620/AD300 cells xenografted in BALB/c nude mouse assessed as increase in cells with vacuoles at 30 mg/kg/day, ig administered for 21 days in presence of paclitaxel by TUNEL staining based fluorescence microscopy. The format is functional, organism-based. The note with it: time 21.0 day.
In data set [14] the test system is SW-620. The experiment in a line: Antitumor activity against human SW-620/AD300 cells xenografted in BALB/c nude mouse assessed as increase in tumor cell apoptosis at 30 mg/kg/day, ig administered for 21 days in presence of paclitaxel by TUNEL staining based fluorescence microscopy. The format is functional, organism-based. Particulars: time 21.0 day.
The nature of data set [15]: Half life in Sprague-Dawley rat at 10 mg/kg, iv measured up to 24 hrs by LC-MS/MS analysis. In kind it is ADME, organism-based. Particulars: in vivo.
Data set [16] is described as follows: AUClast in Sprague-Dawley rat at 10 mg/kg, iv measured up to 24 hrs by LC-MS/MS analysis. The format is ADME, organism-based. Particulars: in vivo. Details: dose 10 mg/kg, time < 24 hrs, route iv.
Data set [17] is described as follows: MRTlast in Sprague-Dawley rat at 10 mg/kg, iv measured up to 24 hrs by LC-MS/MS analysis. Particulars: in vivo. In kind it is ADME, organism-based.
Data set [18] is described as follows: MRTinfinity in Sprague-Dawley rat at 10 mg/kg, iv measured up to 24 hrs by LC-MS/MS analysis. The format is ADME, organism-based. The note with it: in vivo.

Activity calls are given as the source filed them. The rule behind the calls is not given here.

Sequence of ATP-dependent translocase ABCB1 (P08183 whole entry): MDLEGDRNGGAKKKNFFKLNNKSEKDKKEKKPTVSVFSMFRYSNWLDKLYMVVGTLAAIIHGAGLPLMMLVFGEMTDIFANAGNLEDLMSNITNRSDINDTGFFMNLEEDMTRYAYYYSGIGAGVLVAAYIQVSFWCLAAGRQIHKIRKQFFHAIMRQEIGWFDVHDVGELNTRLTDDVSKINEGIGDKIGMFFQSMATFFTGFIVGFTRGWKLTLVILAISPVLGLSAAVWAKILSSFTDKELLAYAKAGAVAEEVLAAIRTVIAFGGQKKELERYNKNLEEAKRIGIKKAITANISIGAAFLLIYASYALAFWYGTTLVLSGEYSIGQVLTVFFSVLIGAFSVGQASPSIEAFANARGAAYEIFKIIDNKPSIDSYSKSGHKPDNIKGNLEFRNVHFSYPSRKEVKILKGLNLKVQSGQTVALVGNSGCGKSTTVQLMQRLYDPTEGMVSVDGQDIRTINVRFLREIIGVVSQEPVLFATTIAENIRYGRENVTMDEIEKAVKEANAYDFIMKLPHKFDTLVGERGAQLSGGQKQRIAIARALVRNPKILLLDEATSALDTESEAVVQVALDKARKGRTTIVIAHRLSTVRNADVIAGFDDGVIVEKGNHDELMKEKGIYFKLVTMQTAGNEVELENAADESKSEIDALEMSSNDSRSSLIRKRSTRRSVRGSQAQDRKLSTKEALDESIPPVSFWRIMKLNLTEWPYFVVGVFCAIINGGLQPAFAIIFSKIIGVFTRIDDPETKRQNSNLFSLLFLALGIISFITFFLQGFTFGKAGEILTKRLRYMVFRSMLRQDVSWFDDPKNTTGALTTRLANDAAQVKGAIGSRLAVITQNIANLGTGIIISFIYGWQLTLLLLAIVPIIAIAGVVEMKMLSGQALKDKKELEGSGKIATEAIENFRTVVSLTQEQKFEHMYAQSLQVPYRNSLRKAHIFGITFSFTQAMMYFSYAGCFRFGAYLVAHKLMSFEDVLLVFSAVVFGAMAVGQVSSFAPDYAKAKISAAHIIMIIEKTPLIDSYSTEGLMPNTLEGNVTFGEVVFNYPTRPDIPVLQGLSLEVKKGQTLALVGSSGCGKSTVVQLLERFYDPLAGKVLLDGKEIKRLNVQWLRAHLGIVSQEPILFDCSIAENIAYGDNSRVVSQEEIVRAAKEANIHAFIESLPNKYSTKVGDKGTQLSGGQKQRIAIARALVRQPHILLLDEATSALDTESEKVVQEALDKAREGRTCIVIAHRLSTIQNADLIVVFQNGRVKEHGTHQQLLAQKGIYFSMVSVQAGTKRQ

In the case of `Cc1cc(Nc2ccc(C(=O)/C=C/c3ccc4ccccc4c3)cc2)n2nc(SCc3nc4ccccc4[nH]3)nc2n1`, the half-maximal inhibitory concentration (IC50) stood at 6.98 nM in data set [1], 15.9 nM in data set [2] and 3.68 nM in [5]. Besides, the “fold change (FC)” value in [3] worked out at 118.34; in data set [4], 1.47; in [6], 9.92; in data set [7], 24.84; in data set [8], 4.68. Also, the outcome in data set [9], in data set [13] and in data set [14] was Active. For the same compound, the Activity entry in [10], in data set [11] and in [12] was “Non-Toxic” in each case. This compound gave a half-life in [15] of 85.8 min. Moreover, the AUC(0-t) at 24 h in data set [16] amounted to 9440 ng·h/mL. The same compound registered a mean residence time MRT last at 24 h in data set [17] of 5.76 min. The compound also came in with an MRT inf in data set [18] of 6.42 min.
